{
  "source": "ChEMBL document CHEMBL5352443",
  "about": "“S-acylthioalkyl ester (SATE)-based prodrugs of deoxyribose cyclic dinucleotides (dCDNs) as the STING agonist for antitumor immunotherapy” (Eur J Med Chem, 2022)",
  "key": {"[1]": {"biological_target": "T1, Stimulator of interferon genes protein (Homo sapiens, UniProt Q86WV6)", "T1 sequence (Q86WV6 whole entry)": "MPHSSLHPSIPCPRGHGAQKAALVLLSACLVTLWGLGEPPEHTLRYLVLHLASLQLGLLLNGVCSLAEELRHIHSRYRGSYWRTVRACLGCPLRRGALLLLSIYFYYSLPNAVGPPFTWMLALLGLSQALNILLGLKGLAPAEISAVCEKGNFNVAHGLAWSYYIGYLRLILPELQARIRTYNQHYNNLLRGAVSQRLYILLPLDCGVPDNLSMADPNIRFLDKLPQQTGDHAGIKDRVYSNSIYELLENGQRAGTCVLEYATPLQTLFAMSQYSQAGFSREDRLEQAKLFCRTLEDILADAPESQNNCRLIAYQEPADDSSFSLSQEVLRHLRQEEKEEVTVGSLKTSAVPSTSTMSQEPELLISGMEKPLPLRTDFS", "experiment": "Agonist activity at STING in PMA-treated human THP-1 reporter cells incubated for 30 mins in presence of digitonin by QUANTI-Luc assay", "assay_type": "cell-based"}, "[2]": {"experiment": "Stability of the compound in 20% fetal bovine serum assessed as drug degradation at 100 uM measured at 72 hrs by HPLC analysis", "assay_type": "ADME, cell-free, Bos taurus", "settings": "cattle"}, "[3]": {"biological_target": "T1, Stimulator of interferon genes protein", "experiment": "Agonist activity at STING in human THP-1 reporter cells incubated for 24 hrs by QUANTI-Luc assay", "assay_type": "cell-based"}, "[4]": {"biological_target": "T1, Stimulator of interferon genes protein", "experiment": "Agonist activity at STING in human THP-1 reporter cells incubated for 4 hrs in presence of lipofectamine 2000 by QUANTI-Luc assay", "assay_type": "cell-based"}, "[5]": {"experiment": "Toxicity in BALB/c mouse implanted with mouse CT26 cells expressing high luciferase assessed as mouse survival rate at 0.5 mg/kg, IT administered intratumorally on day 1,3,5,7 and measured at 50 days", "assay_type": "organism-based", "settings": "in vivo, route it(Intratumoral), time 50 day"}, "[6]": {"system": "CT26", "experiment": "Antitumor activity against mouse CT26 cells expressing high luciferase implanted in BALB/c mouse assessed as darkening of tumor tissue at 0.5 mg/kg, IT administered intratumorally on day 1,3,5,7 and measured on day 1,9,14,24 by fluorescence imaging analysis", "assay_type": "functional, organism-based", "settings": "route it(Intratumoral), time 24.0 day"}},
  "note": "pEC50: −log10 of the molar value. The source made the active and inactive calls. The calls are words filed in the database; no cut-off is given here.",
  "data": [
    {"molecule": "Nc1ncnc2c1ncn2[C@H]1C[C@@H]2OP(=O)(O)OC[C@H]3O[C@@H](n4cnc5c(N)ncnc54)C[C@@H]3OP(=O)(O)OC[C@H]2O1", "values": [
      {"measurement": "pEC50", "setting": "[1]", "value": 6.50},
      {"measurement": "Stability", "setting": "[2]; serum, 72 h, 100 µM", "value": "Stable"},
      {"measurement": "pEC50", "setting": "[3]", "value": 4.38},
      {"measurement": "pEC50", "setting": "[4]", "value": 6.17}
    ]},
    {"molecule": "Nc1nc2c(ncn2[C@@H]2O[C@@H]3COP(=O)(O)O[C@H]4[C@@H](O)[C@H](n5cnc6c(N)ncnc65)O[C@@H]4COP(=O)(O)O[C@@H]2[C@@H]3O)c(=O)[nH]1", "values": [
      {"measurement": "metabolised at 72 h, 100 µM", "setting": "[2]; 20% fetal bovine serum, read-out: Drug degradation", "value": 80, "unit": "%"}
    ]},
    {"molecule": "Nc1ncnc2c1ncn2[C@@H]1O[C@@H]2COP(=O)(S)O[C@@H]3[C@H](O)[C@@H](COP(=O)(S)O[C@H]2[C@H]1O)O[C@H]3n1cnc2c(N)ncnc21", "note": "(some centres not stated)", "values": [
      {"measurement": "survival at 1200 h", "setting": "[5]", "value": 75, "unit": "%"},
      {"measurement": "Activity", "setting": "[6]", "value": "Active"}
    ]}
  ]
}
